In PMC8891185 (The Journal of Nutrition, 2021):

Assays:
[1] = adult men; without AA; consumed in 1 or separate whole-maize porridge meals; cited from earlier work
[2] = 9-mo-old, iron-replete children, cited from earlier work; for iron bioavailability from inhibitory WG cereal: PA:Fe 2.2:1, no added AA
[3] = anemic infants; 5 mg/kg of Fe daily for 28 d; cited from earlier work
[4] = Fractional iron absorption
[5] = iron-deficient infants; AA at a molar ratio of 2:1; cited from earlier work

bioavailability of iron when consumed in WG-oat cereal ([4]; WG-oat cereal with AA, nonsignificant difference between FeBG and Fefum) [%]	iron bioavailability in the noninhibitory reference meal ([4]; refined wheat reference meal with AA) [%]	Compound	iron bioavailability, times higher than FeSO4 [1]	iron bioavailability from inhibitory WG cereal [2] [%]	iron bioavailability from vegetable puree [2] [%]	hemoglobin change [3]	bioavailability of iron as FeSO4 from refined wheat-based infant cereal, with dephytinization [5] [%]	bioavailability of iron as FeSO4 from refined wheat-based infant cereal, without dephytinization [5] [%]
–	–	NCC(=O)[O-].NCC(=O)[O-].[Fe+2] [FeBG, ferrous bisglycinate]	4−6 times	5.2	9	significant hemoglobin increases	–	–
9.2	12.1	O=C([O-])/C=C/C(=O)[O-].[Fe+2] [Fefum, ferrous fumarate]	–	–	–	–	–	–
–	–	ferrous sulfate [FeSO4]	–	3.8	9.9	significant hemoglobin increases	8.5	8.7
